Source: patent US20240299542A1, “NATURAL KILLER CELLS ENGINEERED TO REDUCE OR ELIMINATE CBL-B AND USES THEREOF” (City of Hope, priority 2021, published 2024)

Assays:
[1] = tested on: IFN-γ; test: Intracellular IFN-γ flow cytometry of NK cells pretreated with Mertk inhibitors; type: cell-based, human; conditions: for percentage of intracellular IFN-γ+ cells: 5 uM, 90 min pretreatment, then IL-15 (10 ng/ml) 24 h; for IFN-γ level lower than control with no inhibitor: in the presence of IL-15
Method: (§1) FIGS. 5A-5D depict the results of a study showing that Cbl-b interacts with and regulates phosphorylation of Mertk in primary human NK cells. (FIG. 5A) Representative intracellular flow cytometric analysis of the TAM family receptors expression in primary human NK cells. Summarized data are shown from 6 donors. IgG1 is the isotype for Tyro3 and Axl, while IgG2 for Mertk. (FIG. 5B) The level of Mertk phosphorylation and Cbl-b in Cbl-b siRNA- or Scr siRNA-transduced primary human NK was measured by immunoblot analysis. Data presented are representative of five independent experiments. […] Data presented are representative of 4 donors performed in a similar fashion and are summarized in the panel below the representative flow dot plots. (FIG. 5D) Primary NK cells were pretreated with the Mertk inhibitors UNC2550 or UNC2881 (5 uM) for 90 min prior to 30 min activation by IL-15 (10 ng/ml). Data presented are representative of 4 donors performed in a similar fashion. Scr-scrambled; *P<0.05; ns, not significant. Data presented as mean±SEM.
Flow cytometry. To determine protein cell surface expression via flow cytometry, cells were stained with monoclonal antibodies at room temperature for 20 minutes and washed with FACS buffer prior to analysis using a Fortessa X-20 flow cytometer (BD Biosciences). For IFN-γ intracellular flow cytometric analysis, […] GolgiPlug (BD Biosciences) was added for 4 h before cell harvest; cells were then permeabilized and fixed using a Cytofix/Cytoperm Fixation/Permeabilization Solution Kit (BD Biosciences), followed by analysis with a Fortessa X-20 flow cytometer. Intracellular flow cytometric analysis of Mertk was performed similarly except that GolgiPlug was not added. Data was analyzed by using Flowjo V10 software (Tree Star, Ashland, OR, USA).
The TAM receptor family consists of Tyro3, Axl and Mertk, all of which are expressed in mature mouse NK cells (25) and are molecular substrates for Cbl-b ubiquitylation both in vitro and in vivo (17). To investigate the possible relationship between Cbl-b and the TAM receptor family in primary human NK cells, we detected the expression of the three TAM receptor members in NK cells. […] However, the level of total mertk is low in human NK cells (FIG. 10B), preventing us to characterize the mechanism associated with the p-Mertk regulation by Cbl-b. Next, primary human NK cells were pretreated with or without Mertk inhibitors (UNC2550 or UNC2881), followed by IL-15 stimulation.

[2] = tested on: p-STAT5; test: p-STAT5 by immunoblot in IL-15-activated NK cells pretreated with Mertk inhibitors; type: cell-based, human; conditions: 5 uM, 90 min pretreatment, then IL-15 (10 ng/ml) 30 min, vs no inhibitor
Method: as §1, with “(FIG. 5D) Primary NK cells were pretreated with the Mertk inhibitors UNC2550 or UNC2881 (5 uM) for 90 min prior to 30 min activation by IL-15 (10 ng/ml). Data presented are representative of 4 donors performed in a similar fashion. Scr-scrambled; *P<0.05; ns, not significant. Data presented as mean±SEM.” left out
Immunoblotting. […] Densitometric analysis was performed to quantify intensity of gel bands with Image J (National Institutes of Health).
The TAM receptor family consists of Tyro3, Axl and Mertk, all of which are expressed in mature mouse NK cells (25) and are molecular substrates for Cbl-b ubiquitylation both in vitro and in vivo (17). To investigate the possible relationship between Cbl-b and the TAM receptor family in primary human NK cells, we detected the expression of the three TAM receptor members in NK cells. […]

[3] = tested on: Cbl-b; test: Cbl-b protein by immunoblot after stimulation of primary human NK cells with cytokines or activating antibody; type: cell-based
Method: (FIG. 1B) Enriched primary human NK cells were co-cultured with the K562 myeloid leukemia cell line (E/T ratio=10:1) for 24 h followed by immunoblot analysis. Summary data are from three independent experiments. (FIG. 1C) Primary human NK cells were treated with different concentrations of IL-15 for 24 h followed by immunoblot analysis (n=5 donors). (FIG. 1D) Equal numbers of purified CD56^+ human NK cells, CD56^bright NK cells and CD56^dim NK cells were sorted from peripheral blood mononuclear cells isolated by Ficoll, cultured and stimulated with IL-15 (20 ng/ml for 24 h) followed by immunoblot analysis. The data are representative of three independent experiments. Med, medium only; *P<0.05, **P<0.01 by two-tailed unpaired t-test or One-way ANOVA; ns, not significant. Data are presented as mean±SEM.
FIG. 6A Enriched primary human NK cells were cocultured with Molm-13 or MV4-11 leukemia cell lines (E/T ratio=10:1) for 24 h prior to assessment of Cbl-b by immunoblot analysis. […] FIG. 6B Enriched primary human NK cells were cultured overnight with an anti-NKG2D activating antibody (clone 1D11) (10 μg/ml) or mouse IgG (10 μg/ml) as control prior to assessment of Cbl-b by immunoblot analysis. […] Data are shown summarizes four independent experiments. […] Data are shown summarizes five independent experiments. FIG. 6E The expression of Cbl-b was assessed by qRT-PCR after primary human NK cells were incubated with K562 cells (E/T ratio=10:1) for 24 h. Data are shown summarizes five independent experiments. *P<0.05, **P<0.01, compared to the shortest time point. Data are presented as mean±SEM.
(§2) Immunoblotting. Cells were harvested and suspended in RIPA lysis buffer (Thermo Fisher Scientific) on ice for 20 minutes. Equal amount of protein was resolved by 5-15% Criterion TGX gel (Bio-Rad) and then transferred onto a Nitrocellulose (NC) or PVDF membrane (Thermo Fisher Scientific). The membrane was incubated with a primary antibody at 4° C. overnight and an IRDye secondary antibody (Li-COR Biosciences) for 1 hour at room temperature. The immunoblots were visualized with Odyssey CLx Imager (Li-COR Biosciences). Densitometric analysis was performed to quantify intensity of gel bands with Image J (National Institutes of Health).
We assessed the expression of Cbl-b protein in primary human NK cells enriched from the blood of healthy donors in response to 24-hour stimulation by different cytokines. […] Since certain tumor cells can trigger NK cell activation, we co-cultured NK cells for 24 h with different tumor cell lines in order to assess this effect on the expression of Cbl-b.

[4] = tested on: Cbl-b; test: Cbl-b mRNA by qRT-PCR after IL-15 or IL-2 treatment of primary human NK cells; type: cell-based; conditions: IL-15 (10 ng/ml) or IL-2 (150 IU/ml)
[5] = tested on: Cbl-b; test: Cbl-b protein by immunoblot after JAK or AKT inhibitor pretreatment and IL-15/IL-2 activation of primary NK cells; type: cell-based, human; conditions: 90 min pretreatment at various concentrations, then IL-15 (10 ng/ml) 24 h, vs vehicle control
Method: FIGS. 2A-2E depict the results of a study showing that JAK-STAT and AKT pathways mediate upregulation of Cbl-b in NK cells. (FIG. 2A) Primary human NK cells were pretreated with the JAK3 inhibitor CP-690550 and the JAK1/2 inhibitor AZD1480 at various concentrations for 90 min prior to a 24 h activation by IL15 (10 ng/ml). NK cells were then harvested for quantification of Cbl-b protein expression by immunoblot analysis. Data are representative of 6 donors performed in a similar fashion. Densitometric quantification assessing the ratio of the Cbl-b protein to β-actin protein levels for 6 donors is summarized in (FIG. 2B) and (FIG. 2C). […] Data are representative of 5 donors performed in a similar fashion. Densitometric quantification assessing the ratio of the Cbl-b protein levels to β-actin protein levels for 5 donors is summarized in (FIG. 2E). *P<0.05, **P<0.01, ***P<0.001 by One-way ANOVA or Student's two-tailed paired t-test. Data are presented as mean±SEM.
as §2
(§3) Since IL-15 utilizes select JAK-STAT proteins to initiate cellular activation, we pretreated primary NK cells with the JAK3 inhibitor CP-690550 (22) or the JAK1/2 inhibitor AZD1480 (23) in increasing concentrations prior to IL-15 stimulation then Cbl-b expression level was evaluated. […] As K562 cells were also able to induce expression of Cbl-b in primary human NK cells (FIG. 1B), we repeated the inhibitor experiments under the K562 cell stimulation.

[6] = tested on: Cbl-b; test: Cbl-b protein by immunoblot after inhibitor pretreatment and K562 co-culture of primary NK cells; type: cell-based, human; conditions: 10 uM, 90 min pretreatment, 24 h co-culture with K562 (E/T=10:1), vs vehicle control
Method: FIG. 7A Primary NK cells were pretreated with AZD1480 (10 uM), CP-690550 (10 uM) or Afuresertib (10 uM) for 90 min prior to a 24 h cocultured with K562 cells (E/T=10:1). The immunoblot data are representative of 3 donors in a similar fashion. Densitometric quantification assessing the ratio of Cbl-b protein levels to β-actin protein levels for 3 donors is summarized in FIG. 7B. *P<0.05, **P<0.01; ns, not significant. Data are presented as mean±SEM.
as §2, §3

Compound | percentage of intracellular IFN-γ+ cells [1] | IFN-γ level lower than control with no inhibitor [1] | level of p-STAT5 [2] | other results
CCCCNc1ncc(C(=O)NCc2ccc(-n3ccnc3)cc2)c(NC2CCC(O)CC2)n1 (stereo not drawn) [UNC2881] | 5.49% | approximately 3 fold | decreased | –
UNC2550 | 5.49% | approximately 3 fold | decreased | –
IL-15: Recombinant human IL-15 protein obtained from National Institutes of Health | – | – | – | dose response of Cbl-b protein ([3]; different concentrations of IL-15, 24 h): did not find evidence of a dose response change; expression of Cbl-b protein (ratio to β-actin) ([3]; primary human NK cells, 24 h cytokine stimulation, compared to resting NK cells without cytokines): induced an increase in the expression of Cbl-b; upregulation of Cbl-b mRNA at 24 h post stimulation ([4]; 24 h): sustained; time of peak Cbl-b mRNA ([4]; compared to unstimulated NK cells): 4 h
C[C@@H]1CCN(C(=O)CC#N)C[C@@H]1N(C)c1ncnc2[nH]ccc12 [CP-690550] | – | – | – | expression of Cbl-b protein after inhibitor pretreatment [5]: significant decrease; Cbl-b expression after inhibitor pretreatment under K562 stimulation [6]: only the AKT1/2/3 inhibitor Afuresertib rather than either of the two JAK inhibitors
